Here are results for 89 compounds from a melting point compilation (Tetko et al.; mined from patent text by program, amines drawn as free bases though some values may be those of a salt).

Some results are limits rather than exact numbers.

In general, melting point refers to the temperature, or range, at which the solid turns liquid.

As to `O=C(O)c1cn(-c2ccccc2)c2c(F)c(F)c(F)cc2c1=O`, the melting point lay in the range of 88 to 90 °C.
Regarding `CCCn1c(=O)c2c(ncn2CC(O)CO)n(CCC)c1=O` (centres undefined), the melting point is 88 to 91 °C.
Compound `CCOC(=O)Cc1cccc2c(-c3ccc([N+](=O)[O-])cc3)nccc12` showed a melting point of 89.5 to 90.5 °C.
The result for `CN(c1cccc2cc(-c3nccs3)[nH]c12)S(=O)(=O)c1ccsc1COCC(=O)O` reads 189 °C.
`COC(=O)NNC(=O)c1ccc(O)cc1` registered a melting point of 229 to 230 °C.
Compound `Cc1cc(=O)[nH]c(SCc2ccc(Br)cc2N(C)C)n1` registered a melting point of 163 to 164 °C.
As for `COc1ccc(-c2c(C)c3ccc(O)cc3oc2=O)c(O)c1`, the melting point was 213 to 214 °C.
As to `CCc1c2c(nc3cc(F)cc(F)c13)-c1cc3c(c(=O)n1C2)COC(=O)CC3(O)CC` (centres undefined), the melting point was determined as 255 °C.
To `COc1cccc(N(C)C(=O)C(C)Br)c1` (centres undefined) belongs 55 to 56 °C; to `CCc1ccc(OC(C)=O)c(C2(OC(C)=O)C(=O)c3ccccc3C2=O)c1`, 153 to 154 °C.
The result for `CN1CCN(C2=Nc3cc(Br)ccc3N3CCc4cccc2c43)CC1` reads 153 to 155 °C.
In turn, `O=C(O)CC1c2ncccc2S(=O)(=O)N1c1ccccc1` (centres undefined) returned a melting point of 123 to 128 °C.
Take `COc1ncccc1-c1cc(F)c(F)c(OC2SCC(O)C(O)C2O)c1` (centres undefined): the melting point is 127 °C.
`O=C(CCCCCS(=O)(=O)Nc1ccccc1)NO` gave a melting point of 97 to 98 °C.
In the case of `Fc1ccc(-c2ccc3nnn(Cc4ccc5ncccc5c4)c3n2)cc1`, the melting point lay in the range of 153 to 156 °C.
Compound `COC1=C(OC)C(=O)C(CCCCCCCCCC=O)=C(C)C1=O` registered a melting point of 44.5 to 46.5 °C.
As for `Cc1cc2cc(CN3CCC(CCC(=O)N4CCCCC4)CC3)cnc2cc1NC(=O)c1ccc(-c2ccc(F)cc2)cc1`, the melting point lay in the range of 189 to 191 °C.
As for `O=C(O)COc1cc2cc(-c3ccccc3)sc2c(Cl)c1Cl`, the melting point was in the range of 209 to 211 °C.
For the compound `Nc1cc(C(=O)O)cc(OCc2ccccc2)c1C(=O)c1ccc(Cl)cc1`, the melting point is 196 to 197 °C.
The compound `COC(=O)C1=C(C)Nc2ccnn2C1c1ccccc1C(F)(F)F` (centres undefined) had a melting point of 209 to 210 °C.
As for `CC1CCN(c2occ(C(C)(C)C)c2C#N)C1=O` (centres undefined), the melting point is 88 to 90 °C.
As for `CC(O)(c1nc2cc([N+](=O)[O-])ccc2s1)C(F)(F)F` (centres undefined), the melting point was 66 to 69 °C.
For `FC(F)(F)c1ccccc1P(=S)(S)c1ccccc1C(F)(F)F`, the melting point lay in the range of 93 to 94 °C.
To `CC(=O)c1cccc(C)c1NC(=O)CBr` belongs 97 to 100 °C; to `COc1ccc(C(=O)Nc2c(C)c(C)c3c(c2C)C(c2ccccc2)C(C)(C)O3)cc1` (centres undefined), 190 to 192 °C.
In turn, `CCOC(=O)c1nccn1Cc1ccc(Cl)cc1N` had a melting point of 94 to 96 °C.
As for `CCCCn1c(COCC)nc2c(N)nc3ccccc3c21`, the melting point was in the range of 139 to 140 °C.
Consider `O=C([C@@H]1CSCN1C(=O)c1ccncc1)N1CCSC1`, for which the melting point lay within 120 to 123 °C.
To `COC(=O)c1ccc(C(=O)N2CCC(NC3CCOCC3)CC2)cc1` belongs 129 °C; to `CCC(O)(c1ccc(O)cc1)c1ccc(C(F)(F)F)cc1` (centres undefined), 126 to 127 °C.
Compound `Cn1cc(C(=O)c2ccc(Cl)cc2)cc1C(=O)CCl` yielded a melting point of 130 to 132 °C.
Consider `CCOC(=O)c1cc(CBr)cc(C(=O)OCC)c1`, for which the melting point lay within 111 to 113 °C.
The result for `Oc1ccc2c(c1)CCC(CNCC(O)c1ccc(Cl)cc1)C2` (centres undefined) reads 150 to 153 °C; that for `CSc1ccc(CCl)cc1C(F)(F)F`, 65 to 66 °C; that for `CC1(C)CCC(Cc2ccc(Cl)cc2)C1(O)Cn1ccnc1` (centres undefined), 130 to 132 °C.
The result for `OC(c1ccccc1Cl)C(c1ccccc1Cl)n1ccnc1` (centres undefined) reads 62 to 68 °C.
On to `Cc1nn(-c2ccccn2)c2ncc(C(=O)N(C)c3ccccc3)c(Cl)c12`, for which the melting point was in the range of 154 to 155 °C.
In turn, `CCOC(=O)C(=NO)c1cccc(C(=O)c2ccccc2)c1` returned a melting point of 109 to 110 °C.
`CCOC(=O)C1CC(=O)c2nc(C)c(C)n2C1` (centres undefined) displayed a melting point of 138 to 140 °C.
The compound `CCOC(=Cc1ccc(-c2cccc(N(C)C(=O)Nc3ccc(C)cc3)c2)cc1)C(=O)O` gave a melting point of 92 °C.
In turn, `CC(=O)N1CCC(NC(=O)NC23CC4CC(CC(C4)C2)C3)CC1` yielded a melting point of 202 to 204 °C.
In turn, `CCn1c2ccccc2c2c3c(c(-c4ccccc4Cl)cc21)C(O)NC3=O` (centres undefined) gave a melting point of 232 to 236 °C.
`N#Cc1ccc(C=Cc2ccc(N(CCO)CCO)cc2)cc1` showed a melting point of 197 °C.
Consider `NC(=O)N(O)Cc1ccc(Oc2ccc(-n3ccnc3)cc2)s1`, for which the melting point turned out to be 141 °C.
Take `Cn1cc(-c2c(-c3ccc(F)cc3)nn3ccncc23)ccc1=O`: the melting point lay in the range of 222 to 223 °C.
The result for `COc1ccc(C=C[N+](=O)[O-])c(Cl)c1OC` reads 88 to 91 °C; that for `COCCN1CCN(c2ccc(NC(=O)c3cnn(-c4ccc(Cl)cc4)c3C)cc2C#N)CC1`, 207 °C.
The compound `COC(=O)c1ccc(Cc2cn(C)c3ccc([N+](=O)[O-])cc23)c(OC)c1` displayed a melting point of 144 to 146 °C.
`Cc1cc2c(c(C)c1NC(=O)CC(C)(C)C)C(c1ccccc1)CO2` (centres undefined) showed a melting point of 158 to 159 °C.
For the compound `Cc1ccc(S(=O)(=O)OCC2CCc3ccc4[nH]c(=O)[nH]c4c3O2)cc1` (centres undefined), the melting point came out at 205 °C.
With `CN(C)C(=O)Nc1cccc(CCC#N)c1`, the melting point was in the range of 159 to 161 °C.
Regarding `O=C1C(=Cc2ccc(Cl)cc2)Cc2ccccc21`, the melting point lay within 174 to 179 °C.
On to `COc1cc2c(cc1OC)C(c1ccco1)=NN=C(C)C2`, for which the melting point was 155 to 157 °C.
Take `CC(C)(C)OC(=O)N1CCC(c2nc3cc(-c4ccc(-n5cnnn5)cc4F)ccc3o2)CC1`: the melting point was in the range of 203 to 207 °C.
To `CCC(CC)C(O)C(O)C(CC1CCCCC1)NC(=O)C(Cc1c[nH]cn1)NC(=O)C(CC(=O)C(C)(C)C)Cc1ccccc1` (centres undefined) belongs 160 °C; to `O=C(c1ccccc1)N1CCc2cc(S(=O)(=O)N3CCN(c4cccc(Cl)c4)CC3)ccc21`, 200 to 201 °C.
`COc1ccc(/C=C/C(=O)Nc2ccccc2C(=O)OCC(=O)NCC(C)(C)SN=O)cc1OC` registered a melting point of 135 to 137 °C.
As to `[N-]=[N+]=NCCCc1ccc(C(N)=O)s1`, the melting point was 85 to 87 °C.
Consider `CC(C)c1ccc(N(Cc2ccc(OCC(F)(F)F)cc2)C(=O)Nc2c(C(C)C)cccc2C(C)C)cc1`, for which the melting point was 138 °C.
The result for `CCc1ccccc1-c1nc(-c2ccc(Cl)cc2)n[nH]1` reads 118 to 120 °C; that for `COc1ccccc1CN1C(=O)C2CCCC2N(C(=O)CN2C(=O)c3ccccc3C2=O)c2ccccc21` (centres undefined), 261 to 272 °C.
To `CC1=C(c2ccc(OCC(C)NCC(O)c3cccc(Cl)c3)cc2)CCC(=O)N1` (centres undefined) belongs 99 to 104 °C; to `C#Cc1cn(C2CC(O)C(COC(c3ccccc3)(c3ccccc3)c3ccccc3)O2)c(=O)[nH]c1=O` (centres undefined), 110 °C.
For `O=C(CCc1ccncc1)c1c(O)c2cccnc2n(-c2cccc([N+](=O)[O-])c2)c1=O`, the melting point fell in the range of 174 to 177 °C.
Regarding `CCN1CCCC(NC(=O)c2cc(C)on2)C1` (centres undefined), the melting point fell in the range of 84 to 86 °C.
The result for `CC(C)(C)c1cc2c(Cl)ncnc2o1` reads 72 to 74 °C; that for `CN(C)C(=O)Cn1c(-c2ccc(Cl)cc2)nc2cccnc21`, 212 to 213 °C.
In turn, `Cc1c(Br)sc2ccc(Br)cc12` had a melting point of 118 to 122 °C.
To `COc1cc(OC)c2c(c1)c(-c1cc3cccnc3[nH]1)cn2C` belongs 220 °C.
In the case of `COc1ccc(C=O)c(Oc2ccc(Cl)cc2[N+](=O)[O-])c1`, the melting point was 130 to 131 °C.
To `Cn1c(C(F)(F)F)cc(=O)n(-c2cc(OCCNC=O)c(Cl)cc2F)c1=O` belongs 128 to 131 °C; to `CCC1c2cccn2-c2ccc(Cl)cc2N1C(=O)c1ccc(OC)cc1OC` (centres undefined), 70 to 74 °C.
`CCOC(=O)C(C)Oc1ncn(-c2cccc(F)c2)n1` (centres undefined) came in with a melting point of 35 to 37 °C.
Compound `O=C1Oc2ccccc2C1c1ccccc1` (centres undefined) had a melting point of 109 to 111 °C.
Turning to `CC12CCC(O)CC1=CCC1C2CCC2(C)C(c3ccsc3)=CCC12` (centres undefined), the melting point lay in the range of 215 to 219 °C.
`CC1C(=O)N(c2ccccc2)C(=S)N1c1ccc(Sc2ccccc2)cc1` (centres undefined): the melting point turned out to be 84 °C.
In the case of `Nc1nc(=O)n(C2CC(O)C(CNC(=O)Cc3ccccc3Br)O2)cc1Br` (centres undefined), the melting point lay in the range of 164 to 167 °C.
Regarding `O=[N+]([O-])c1ccc(Oc2ccc(C(F)(F)F)cc2Cl)cc1[N+](=O)[O-]`, the melting point was in the range of 80 to 81 °C.
`O=c1ccc2cc(I)ccc2[nH]1`: the melting point worked out at 261 °C.
The compound `CN1C(=O)C(C)(C)N=C(c2ccccc2F)c2cc([N+](=O)[O-])cc(Br)c21` came in with a melting point of 228 °C.
In turn, `O=C(NC1N=C(c2ccccc2F)c2ccccc2N(C(=O)c2ccc(Cl)cc2)C1=O)c1ccc(Cl)cc1` (racemic) gave a melting point of 190 to 191 °C.
The result for `COc1cc2c(cc1Nc1ncc(C(F)(F)F)c(Nc3ccc(N4CCOCC4)cc3OC)n1)CCOC(=O)N2C` reads 232 to 234 °C; that for `COC(=O)c1cc(N)c(C(C)(C)C)c(N)c1`, 71 to 73 °C; that for `Cc1cc(-c2noc(C(F)(F)F)n2)cc(C)c1OCCCc1ccc(CO)nc1`, 92 to 94 °C.
`COC(=O)C(C)(O[Si](C)(C)C(C)(C)C)c1ccc([N+](=O)[O-])cc1` (centres undefined) yielded a melting point of 65 to 66 °C.
`CC(=O)c1cccc2ccc(CC#N)cc12` returned a melting point of 88 °C.
`ON=C(c1ccccc1)c1ccc(OCCCCOc2ccc(C(=NO)c3ccccc3)cc2)cc1` came in with a melting point of 154 to 156 °C.
`O=C(O)CCc1cc2cc(Cl)ccc2n1S(=O)(=O)c1cccc(C(F)(F)F)c1` gave a melting point of 203 to 206 °C.
The result for `Cc1cc(=O)n(-c2cc3[nH]c(=O)sc3cc2F)c(=O)n1C` reads more than 250 °C.
